Assay: Acid stability (acid-mediated hydrolytic decomposition, simulated stomach conditions)
Format: physicochemical
Conditions: pH 1, 25° C.; for Compound left (%): 0.3 mg/mL in dilute hydrochloric acid, HPLC
Description: Compounds were tested for their stability towards acid-mediated hydrolytic decomposition employing a test designed to simulate stomach conditions. Each compound was incubated at an initial concentration of 0.3 mg/mL in dilute hydrochloric acid at pH 1 for 24 hours at 25° C. HPLC was run immediately for t=0 and at intervals up to approximately 24 hours. The results for compounds of Example 2, part b, Example 9, and for comparative phosphoramidates of 2′,3′-dideoxy-adenosine (Compound 1093) and 2′,3′-didehydro-2′,3′-dideoxy-adenosine (Compound 1001), described in PCT/GB96/00580, are given in the table below.

Compound: COC(=O)C(C)(C)NP(=O)(OC[C@@H]1C=C[C@H](n2cnc3c(NCC4CC4)nc(N)nc32)C1)Oc1ccccc1 (relative stereo) [Example 9]
- Compound left (%) (Time 0 hr): 100%
- Compound left (%) (Time 13 hr): 96%
- Compound left (%) (Time 24 hr): 94%
- Acid stability in words (after 24 hours, dilute hydrochloric acid): remained intact
